Publication PMC9873481 (Nature, 2022)

T1: hBest2 (Homo sapiens, UniProt Q8NFU1)
T1 sequence (Q8NFU1 1-509): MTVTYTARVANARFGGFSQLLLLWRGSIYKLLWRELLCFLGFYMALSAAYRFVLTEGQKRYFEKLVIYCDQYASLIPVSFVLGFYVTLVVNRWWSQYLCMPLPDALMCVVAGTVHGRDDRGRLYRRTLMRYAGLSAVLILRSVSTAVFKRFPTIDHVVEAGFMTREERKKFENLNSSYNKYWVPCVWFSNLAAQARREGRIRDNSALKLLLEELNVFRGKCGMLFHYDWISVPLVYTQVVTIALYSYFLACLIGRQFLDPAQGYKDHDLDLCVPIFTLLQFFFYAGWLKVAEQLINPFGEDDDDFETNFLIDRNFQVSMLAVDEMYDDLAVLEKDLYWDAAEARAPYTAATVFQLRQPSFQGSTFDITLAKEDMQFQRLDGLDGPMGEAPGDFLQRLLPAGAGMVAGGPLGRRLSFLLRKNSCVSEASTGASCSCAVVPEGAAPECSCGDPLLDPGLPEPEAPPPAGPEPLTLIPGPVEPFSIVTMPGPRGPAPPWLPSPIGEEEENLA


Experiments:
hBest2 = biological target: T1, hBest2; test: whole-cell patch clamp, HEK293; type: cell-based
cryo-EM structure = biological target: the molecule itself; test: cryo-EM structure

EC50 (hBest2) | Molecule | stoichiometry N (cryo-EM structure)
46 mM | N[C@@H](CCC(=O)O)C(=O)O [glutamate] | 
 | bovine bestrophin-2, purified for cryo-EM (GFP-His tag removed) (natural protein) MTVTYTARVAKARFGGFSKLLLLWRGSIYKLLWRELLCFLGLFMALSAAYRFVLTEEQKRYFEKLVLYCDRYASLIPVSFVLGFYVTLVVHRWWNQYLSMPLTDALMCVVVGTVHGHDERGRLYRRTLMRYAGLSGVLILRSVSTAVFKRFPTIDHVVEAGFMTREERKKFENLNSSYNKYWVPCVWFCNLAAQARREGRIRDNGAFKLLLEELNVFRSKCGMLFHYDWISVPLVYTQVVTIAVYSYFLACLIGRQFLDPAQGYKDHDLDLCVPIFTLLQFFFYAGWLKVAEQLINPFGEDDDDFETNFLIDRCFQVSMLAVDEMYDDLAMLEKDLYWDAAEARAPYTAATAFLMQQPSFQGSTFDITLAKEDMQFQRQDGLEAPLNEAHGDFLQRLLPVGTGMGTGGLL | 5
